Assays:
[1] = tested on: human tumor cell lines; assay: In vitro antitumor activity in panel of 37 human tumor cell lines (Monolayer Assay, PI), summary; type: cell-based
[2] = tested on: human glioma U87 cells; assay: Viability of human glioma U87 cell-line; type: cell-based; details: FIG. 9
[3] = tested on: Caspase 3 activity of LS1034 human colon MDR carcinoma cells; assay: Caspase-3 activity in LS1034 human colon MDR carcinoma cells; type: cell-based; details: 10 or 20 μM, 4 hr after exposure
Procedure: Caspase 3 activity was measured by an enzymatic fluorimetric method using a fluorigenic substrate (Ac-DEVD-AMC), which produces blue fluorescence detected at 360 nm wavelength. […] When AMC is cleaved from the substrate by caspase-3, and caspase-3-like enzymes, it produces a yellow-green fluorescence, which can be monitored by a fluorimeter at 460 nm. The amount of yellow green fluorescence is proportional to the activity of caspase-3 in the cell extract sample.
Whole cell lysate was added to a buffer containing 100 μM peptide substrate, 100 mM HEPES, 10% glycerol, 1 mM EDTA and 10 mM dithiothreitol. Measurements were taken every 5 min for 80 min. These experiments were also monitored in the presence of a specific caspase-3 inhibitor, DEVD-AMC-CHO, which was added after 45 or 60 min to the reaction mixture, to ascertain the specificity of the enzyme.

[4] = tested on: CNXF 498NL; assay: Monolayer Assay, PI: CNXF 498NL; type: cell-based, human
Source text: (§1) This example illustrates cell proliferation data in the form of IC50, IC70 and IC90 values obtained by exposure of human cancer cell-lines to compound (Ia). […].

[5] = tested on: human colon carcinoma cells (HT29); assay: HT29 human colon carcinoma s.c. tumor in Nude CD1 male mice; type: in vivo
Source text: This example illustrates the effect of several compounds, including an exemplary compound of the present invention, on tumor volume. tumor weight and body weight in mice. Nude CD1 male mice were purchased from Harlan (Israel). Animals were housed under controlled conditions (temperature, humidity) and were given food and water ad libitum. After one week of acclimatization animals were inoculated s.c. with human colon carcinoma cells (HT29) (2,000,000 cell/animals.). Therapy began 8 days after inoculation, at which time the animals were divided randomly into 4 groups (7-8 mice/group) and administered ip 3 times weekly for 4 weeks with the following compounds: […] Body weight and tumor volume were measured weekly. Tumor volume is defined as (shortest diameter)^2×(longest diameter)×0.5. At the end of the treatment, animals were sacrificed and tumors and organs collected and weighed.

[6] = tested on: PRXF DU145; assay: Monolayer Assay, PI: PRXF DU145 (Prostate); type: cell-based, human
Source text: as §1

[7] = tested on: GXF 251L; assay: Monolayer Assay, PI: GXF 251L (Gastric); type: cell-based, human
Source text: as §1

[8] = tested on: PRXF LNCAP; assay: Monolayer Assay, PI: PRXF LNCAP (Prostate); type: cell-based, human
Source text: as §1

[9] = tested on: human Jurkat lymphoma cells; assay: Viability of human Jurkat lymphoma cells, dexamethasone alone and in combination; type: cell-based
[10] = tested on: MEXF 514L; assay: Monolayer Assay, PI: MEXF 514L (Melanoma); type: cell-based, human
Source text: as §1

[11] = tested on: PRXF PC3M; assay: Monolayer Assay, PI: PRXF PC3M (Prostate); type: cell-based, human
Source text: as §1

[12] = tested on: UXF 1138L; assay: Monolayer Assay, PI: UXF 1138L (Uterus Body); type: cell-based, human
Source text: as §1

[13] = tested on: MEXF 276L; assay: Monolayer Assay, PI: MEXF 276L (Melanoma); type: cell-based, human
Source text: as §1

[14] = mean over human cancer cell-lines

CN[C@H]1CC[C@@H](c2ccc(Cl)c(Cl)c2)c2ccc(C#CCCCO)cc21 [compound (Ia), (1S-cis)-4-(3,4-dichlorophenyl)-7-(5-hydroxy-1-pentyn-1-yl)-1,2,3,4-tetrahydro-N-methyl-1-naphthalenamine hydroiodide]
active*/total cell lines ([1]; 2.3 μg/ml): 0/37 | active*/total cell lines, percent ([1]; 2.3 μg/ml): 0% | active*/total cell lines ([1]; 7.5 μg/ml): 26/37 | active*/total cell lines, percent ([1]; 7.5 μg/ml (text: concentration of 7.5), hydroiodide): 70% | active*/total cell lines ([1]; 23. μg/ml): 37/37 | active*/total cell lines, percent ([1]; 23. μg/ml): 100% | active*/total cell lines ([1]; 75. μg/ml): 37/37 | active*/total cell lines, percent ([1]; 75. μg/ml): 100% | active*/total cell lines ([1]; .75 μg/ml): 0/37 | active*/total cell lines, percent ([1]; .75 μg/ml): 0% | IC50 [1, 14]: 4.9 µM | mean IC70 [1, 14]: 6.9 µM | effect on cell viability [2]: inhibit this glioma cell-line in a dose dependant fashion | efficacy compared with paroxetine [2]: higher efficacy than paroxetine | caspase-3 activity [3]: dose dependent increase in the activity of caspase-3 | Test/Control (%) ([4]; 2.3 μg/ml): 101% | Test/Control activity class ([4]; 2.3 μg/ml): − (− (T/C = 50)) | Test/Control (%) ([4]; 7.5 μg/ml): 5% | Test/Control activity class ([4]; 7.5 μg/ml): +++ (+++ (T/C < 10)) | Test/Control (%) ([4]; 23. μg/ml): 3% | Test/Control activity class ([4]; 23. μg/ml): +++ (+++ (T/C < 10)) | Test/Control (%) ([4]; 75. μg/ml): 1% | Test/Control activity class ([4]; 75. μg/ml): +++ (+++ (T/C < 10)) | Test/Control (%) ([4]; .75 μg/ml): 97% | Test/Control activity class ([4]; .75 μg/ml): − (− (T/C = 50)) | tumor weight ([5]; HT29 tumor in nude mice, end of treatment, FIG. 17): very similar to the tumor weight of mice treated with 5 FU | tumor volume ([5]; HT29 tumor in nude mice, ip 3 times weekly, after 3 and 4 weeks of therapy, FIG. 16): significantly decreased compared to the control groups | decrease in body weight ([5]; compared to 5 FU or controls, FIG. 18): 10% | histopathological assessment of spleen, liver and kidney ([5]; end of treatment): change in capsule fibrosis at random | efficacy in inhibiting human colon cancer tumor growth ([5]; mice model, 30 mg/kg ip): high efficacy superior to sertraline | Test/Control (%) ([6]; 2.3 μg/ml): 94% | Test/Control activity class ([6]; 2.3 μg/ml): − (− (T/C = 50)) | Test/Control (%) ([6]; 7.5 μg/ml): 4% | Test/Control activity class ([6]; 7.5 μg/ml): +++ (+++ (T/C < 10)) | Test/Control (%) ([6]; 23. μg/ml): 1% | Test/Control activity class ([6]; 23. μg/ml): +++ (+++ (T/C < 10)) | Test/Control (%) ([6]; 75. μg/ml): 1% | Test/Control activity class ([6]; 75. μg/ml): +++ (+++ (T/C < 10)) | Test/Control (%) ([6]; .75 μg/ml): 102% | Test/Control activity class ([6]; .75 μg/ml): − (− (T/C = 50)) | Test/Control (%) ([7]; 2.3 μg/ml): 80% | Test/Control activity class ([7]; 2.3 μg/ml): − (− (T/C = 50)) | Test/Control (%) ([7]; 7.5 μg/ml): 54% | Test/Control activity class ([7]; 7.5 μg/ml): − (− (T/C = 50)) | Test/Control (%) ([7]; 23. μg/ml): 7% | Test/Control activity class ([7]; 23. μg/ml): +++ (+++ (T/C < 10)) | Test/Control (%) ([7]; 75. μg/ml): 3% | Test/Control activity class ([7]; 75. μg/ml): +++ (+++ (T/C < 10)) | Test/Control (%) ([7]; .75 μg/ml): 90% | Test/Control activity class ([7]; .75 μg/ml): − (− (T/C = 50)) | Test/Control (%) ([8]; 2.3 μg/ml): 56% | Test/Control activity class ([8]; 2.3 μg/ml): − (− (T/C = 50)) | Test/Control (%) ([8]; 7.5 μg/ml): 4% | Test/Control activity class ([8]; 7.5 μg/ml): +++ (+++ (T/C < 10)) | Test/Control (%) ([8]; 23. μg/ml): 3% | Test/Control activity class ([8]; 23. μg/ml): +++ (+++ (T/C < 10)) | Test/Control (%) ([8]; 75. μg/ml): 3% | Test/Control activity class ([8]; 75. μg/ml): +++ (+++ (T/C < 10)) | Test/Control (%) ([8]; .75 μg/ml): 78% | Test/Control activity class ([8]; .75 μg/ml): − (− (T/C = 50)) | inhibition of cell viability compared with sertraline and paroxetine ([9]; FIG. 13A): higher than that produced by either sertraline or paroxetine | cytotoxicity at 20 µM ([9]; Homo sapiens, 20 μM alone, FIG. 13B, read-out: inhibition of cell viability): 69% | Test/Control (%) ([10]; 2.3 μg/ml): 90% | Test/Control activity class ([10]; 2.3 μg/ml): − (− (T/C = 50)) | Test/Control (%) ([10]; 7.5 μg/ml): 3% | Test/Control activity class ([10]; 7.5 μg/ml): +++ (+++ (T/C < 10)) | Test/Control (%) ([10]; 23. μg/ml): 2% | Test/Control activity class ([10]; 23. μg/ml): +++ (+++ (T/C < 10)) | Test/Control (%) ([10]; 75. μg/ml): 3% | Test/Control activity class ([10]; 75. μg/ml): +++ (+++ (T/C < 10)) | Test/Control (%) ([10]; .75 μg/ml): 108% | Test/Control activity class ([10]; .75 μg/ml): − (− (T/C = 50)) | Test/Control (%) ([11]; 2.3 μg/ml): 91% | Test/Control activity class ([11]; 2.3 μg/ml): − (− (T/C = 50)) | Test/Control (%) ([11]; 7.5 μg/ml): 4% | Test/Control activity class ([11]; 7.5 μg/ml): +++ (+++ (T/C < 10)) | Test/Control (%) ([11]; 23. μg/ml): 1% | Test/Control activity class ([11]; 23. μg/ml): +++ (+++ (T/C < 10)) | Test/Control (%) ([11]; 75. μg/ml): 1% | Test/Control activity class ([11]; 75. μg/ml): +++ (+++ (T/C < 10)) | Test/Control (%) ([11]; .75 μg/ml): 95% | Test/Control activity class ([11]; .75 μg/ml): − (− (T/C = 50)) | Test/Control (%) ([12]; 2.3 μg/ml): 103% | Test/Control activity class ([12]; 2.3 μg/ml): − (− (T/C = 50)) | Test/Control (%) ([12]; 7.5 μg/ml): 3% | Test/Control activity class ([12]; 7.5 μg/ml): +++ (+++ (T/C < 10)) | Test/Control (%) ([12]; 23. μg/ml): 2% | Test/Control activity class ([12]; 23. μg/ml): +++ (+++ (T/C < 10)) | Test/Control (%) ([12]; 75. μg/ml): 3% | Test/Control activity class ([12]; 75. μg/ml): +++ (+++ (T/C < 10)) | Test/Control (%) ([12]; .75 μg/ml): 102% | Test/Control activity class ([12]; .75 μg/ml): − (− (T/C = 50)) | Test/Control (%) ([13]; 2.3 μg/ml): 88% | Test/Control activity class ([13]; 2.3 μg/ml): − (− (T/C = 50)) | Test/Control (%) ([13]; 7.5 μg/ml): 30% | Test/Control activity class ([13]; 7.5 μg/ml): + (+ (30 <= T/C < 50)) | Test/Control (%) ([13]; 23. μg/ml): 4% | Test/Control activity class ([13]; 23. μg/ml): +++ (+++ (T/C < 10)) | Test/Control (%) ([13]; 75. μg/ml): 5% | Test/Control activity class ([13]; 75. μg/ml): +++ (+++ (T/C < 10)) | Test/Control (%) ([13]; .75 μg/ml): 95% | Test/Control activity class ([13]; .75 μg/ml): − (− (T/C = 50))

Source: US20100279990A1, “ANTIPROLIFERATIVE COMPOUNDS, COMPOSITIONS AND METHODS OF USE” (RAMOT AT TEL-AVIV UNIVERSITY LTD., priority 2006, published 2010)
